Laboratory results from patent publication US8835617B2, “Polynucleotides encoding a human TRIM-Cyp fusion polypeptide, compositions thereof, and methods of using same” (priority 2008, dated 2014).

Key:
CypA-CA interaction = conditions: CsA 2.5 μM, CRFK; DEBIO-025 in Jurkat
Method: All chemicals were obtained from Sigma unless otherwise noted. Puromycin was used at 1 μM. […] Arsenic trioxide (As2O3) was made at 100 mM in 1N sodium hydroxide (NaOH) and then further diluted to 1 mM in phosphate buffered saline (PBS). pH was adjusted to 7.5 with hydrochloric acid and stored at 4° C.

T5-mediated restriction = test: Disruption of T5Cyp-mediated HIV-1 restriction by arsenic trioxide in CRFK cells; assay type: cell-based; conditions: increasing amounts
Method: This drug was previously shown to inhibit T5-mediated restriction (Sebastian et al., 2006).
Puromycin was used at 1 μM.

| Molecule | effect on HIV-1 restriction by AoT5Cyp and hT5Cyp (CypA-CA interaction) | effect on AoT5Cyp and hT5Cyp restriction activity (T5-mediated restriction) |
| --- | --- | --- |
| C/C=C/C[C@@H](C)[C@@H](O)[C@H]1C(=O)N[C@@H](CC)C(=O)N(C)[C@H](C)C(=O)N(CC)[C@@H](C(C)C)C(=O)N[C@@H](C(C)C)C(=O)N(C)[C@@H](CC(C)C)C(=O)N[C@@H](C)C(=O)N[C@H](C)C(=O)N(C)[C@@H](CC(C)C)C(=O)N(C)[C@@H](CC(C)C)C(=O)N(C)[C@@H](C(C)C)C(=O)N1C [DEBIO-025] | Equivalent results |  |
| arsenic trioxide [As2O3] |  | blocked to the same extent |
